IC50 data for 57 compounds are collected here from patent US11685732B2, “MYST family histone acetyltransferase inhibitors” (Epizyme, Inc., priority 2017, dated 2023).

A value given as a limit tells only on which side of the number the result lay.

KAT-5, sequence (Q92993 other isoform, or with tags, fused parts or gaps): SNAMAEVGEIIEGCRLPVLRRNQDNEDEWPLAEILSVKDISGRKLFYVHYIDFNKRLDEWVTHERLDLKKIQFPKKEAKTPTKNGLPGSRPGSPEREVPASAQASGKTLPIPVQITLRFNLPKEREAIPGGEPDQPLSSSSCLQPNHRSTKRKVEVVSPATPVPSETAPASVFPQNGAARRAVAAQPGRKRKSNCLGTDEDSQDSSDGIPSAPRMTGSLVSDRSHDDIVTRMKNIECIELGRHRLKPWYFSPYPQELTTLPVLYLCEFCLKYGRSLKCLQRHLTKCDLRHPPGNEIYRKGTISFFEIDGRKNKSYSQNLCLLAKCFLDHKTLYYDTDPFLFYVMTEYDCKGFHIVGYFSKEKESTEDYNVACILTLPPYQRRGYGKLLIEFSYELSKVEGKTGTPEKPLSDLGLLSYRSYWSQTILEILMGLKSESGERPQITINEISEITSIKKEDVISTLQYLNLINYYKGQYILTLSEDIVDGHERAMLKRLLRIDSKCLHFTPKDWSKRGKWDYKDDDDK

One experiment has as its target KAT-5 (Homo sapiens (Human), UniProt Q92993). The experiment in a line: KAT-5 biochemical inhibition assay (SAMDI mass spectrometry).
Conditions: not given
The method, then: (§1) KAT-5. Enzyme assay buffer was 50 mM Tris pH 8.0, 0.002% Tween20, 0.005% bovine skin gelatin, and 1 mM dithiothreitol (DTT). For determination of IC50 values, compounds were serially diluted with 2% (v/v) DMSO in the final reaction, pre-incubating each dilution of each compound with 40 μL of assay buffer containing KAT-5 enzyme (9 nM final concentration). 10 μL of assay buffer containing 1 μM peptide substrate and 0.5 μM acetyl coenzyme A (final concentrations) was added. Reactions (50 μL total) were then carried out at 25° C. for 90 minutes. Reactions were terminated by the addition of 0.5% formic acid (final concentration), and a sample of each reaction was analyzed by SAMDI Tech, Inc. (Chicago, Ill.) using self-assembled monolayer desorption/ionization time-of-flight mass spectrometry (Mrksich, M. (2008) Mass spectrometry of self-assembled monolayers: a new tool for molecular surface science. ACS Nano 2, 7-18).
Consider `COc1ccc(S(=O)(=O)NNC(=O)c2cc(-c3cn(C)cn3)cc(Cl)c2F)c(F)c1OCc1ccccc1` [Compound I-462], for which the IC50 lay within 10 to 50 µM.

The same experiment, now with this note: Table 5.
`Cc1cccc(-c2cc(Cl)c(F)c(C(=O)NNS(=O)(=O)CC3CN(C)CCO3)c2)c1` (stereo not drawn) [Compound A-11] had an IC50 of at most 10 µM.

On to `Cc1cccc(-c2cc(Cl)c(F)c(C(=O)NNS(=O)(=O)CCCN(C)Cc3ccccc3)c2)c1` [Compound A-18], for which the half-inhibitory concentration (IC50) is above 100 µM.

A further experiment deals with KAT-6A (Homo sapiens (Human), UniProt Q92794). The experiment in a line: KAT-6A biochemical inhibition assay (SAMDI mass spectrometry).
KAT-6A, sequence (Q92794 other isoform, or with tags, fused parts or gaps): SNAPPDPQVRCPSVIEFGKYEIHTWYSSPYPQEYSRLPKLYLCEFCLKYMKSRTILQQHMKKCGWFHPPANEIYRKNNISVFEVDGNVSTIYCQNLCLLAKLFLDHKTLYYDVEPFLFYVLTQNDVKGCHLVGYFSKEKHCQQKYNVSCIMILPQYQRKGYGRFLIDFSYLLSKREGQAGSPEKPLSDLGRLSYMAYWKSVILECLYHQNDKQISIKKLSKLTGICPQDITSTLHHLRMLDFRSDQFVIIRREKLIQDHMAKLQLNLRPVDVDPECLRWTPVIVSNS
Conditions: not given
The method, then:
as §1, with “KAT-6A. Enzyme” for “KAT-5. Enzyme”, “containing KAT-6A” for “containing KAT-5”, “enzyme (12.5” for “enzyme (9”, “and 1” for “and 0.5”
Turning to `COc1cc(F)c(S(=O)(=O)NNC(=O)c2cc(-c3cn(C)cn3)cc(Cl)c2F)c(F)c1` [Compound I-421], the IC50 is below 10 µM.

`CNCCOc1ccc(S(=O)(=O)NNC(=O)c2cc(-c3cn(C)cn3)cc(Cl)c2F)cc1` [Compound I-422] displayed an IC50 above 100 µM.

Regarding `Cn1cnc(-c2cc(Cl)c(F)c(C(=O)NNS(=O)(=O)c3ccc(F)cc3F)c2)c1` [Compound I-423], the IC50 was below 10 µM.

The compound `CCN1CC(CS(=O)(=O)NNC(=O)c2cc(-c3cn(C)cn3)cc(Cl)c2F)CCC1=O` (stereo not drawn) [Compound I-424] yielded an IC50 of 10 to 50 µM.

The compound `CCN(C)C(=O)N(C)C1CC(CS(=O)(=O)NNC(=O)c2cc(-c3cn(C)cn3)cc(Cl)c2F)C1` (stereo not drawn) [Compound I-425] came in with an IC50 of 50 to 100 µM.

As for `COc1ccc(S(=O)(=O)NNC(=O)c2cc(-c3cn(C)cn3)cc(Cl)c2F)c(Cl)c1` [Compound I-426], the 50% inhibitory concentration (IC50) is 10 to 50 µM.

`Cn1cnc(-c2cc(Cl)c(F)c(C(=O)NNS(=O)(=O)C3CCC4CCC3C4)c2)c1` (stereo not drawn) [Compound I-427] displayed an IC50 of 10 to 50 µM.

Turning to `CCNC(=O)N(C)C1CC(CS(=O)(=O)NNC(=O)c2cc(-c3cn(C)cn3)cc(Cl)c2F)C1` (stereo not drawn) [Compound I-428], the IC50 was below 10 µM.

For the compound `Cn1cnc(-c2cc(Cl)c(F)c(C(=O)NNS(=O)(=O)c3cccc(O)c3)c2)c1` [Compound I-429], the half-inhibitory concentration (IC50) was below 10 µM.

For `Cn1cnc(-c2cc(Cl)c(F)c(C(=O)NNS(=O)(=O)c3cccnc3O)c2)c1` [Compound I-430], the IC50 lay within 10 to 50 µM.

With `Cn1cnc(-c2cc(Cl)c(F)c(C(=O)NNS(=O)(=O)CC3CCN(CC(F)(F)F)CC3)c2)c1` [Compound I-431], the IC50 was 10 to 50 µM.

Turning to `CN(C)CCOc1cccc(S(=O)(=O)NNC(=O)c2cc(-c3cn(C)cn3)cc(Cl)c2F)c1` [Compound I-432], the IC50 was below 10 µM.

Take `CO[C@H]1CCCC[C@@H]1CS(=O)(=O)NNC(=O)c1cc(-c2cn(C)cn2)cc(Cl)c1F` [Compound I-434]: the IC50 is below 10 µM.

As to `CO[C@@H]1CCCC[C@@H]1CS(=O)(=O)NNC(=O)c1cc(-c2cn(C)cn2)cc(Cl)c1F` [Compound I-435], the IC50 was below 10 µM.

Regarding `COCCc1cn(Cc2ccc(OC)cc2)cc1-c1cc(Cl)c(F)c(C(=O)NNS(=O)(=O)CC2CCOCC2)c1` [Compound I-436], the IC50 is above 100 µM.

For the compound `Cn1cnc(-c2cc(Cl)c(F)c(C(=O)NNS(=O)(=O)CC3CCCN(CC(F)(F)F)C3)c2)c1` (stereo not drawn) [Compound I-437], the IC50 lay in the range of 10 to 50 µM.

`Cn1cnc(-c2cc(Cl)c(F)c(C(=O)NNS(=O)(=O)c3ccc(Cl)cc3F)c2)c1` [Compound I-438] came in with an IC50 below 10 µM.

Compound `CC(C)Oc1ccc(S(=O)(=O)NNC(=O)c2cc(-c3cn(C)cn3)cc(Cl)c2F)c(F)c1` [Compound I-439] returned an IC50 below 10 µM.

`COCCOc1ccc(S(=O)(=O)NNC(=O)c2cc(-c3cn(C)cn3)cc(Cl)c2F)c(F)c1` [Compound I-440] showed an IC50 below 10 µM.

Take `CCOc1ccc(S(=O)(=O)NNC(=O)c2cc(-c3cn(C)cn3)cc(Cl)c2F)c(F)c1` [Compound I-441]: the IC50 is below 10 µM.

In turn, `Cn1cnc(-c2cc(Cl)c(F)c(C(=O)NNS(=O)(=O)c3cccc(OCc4ccccc4)c3F)c2)c1` [Compound I-442] gave an IC50 below 10 µM.

The compound `Cn1cnc(-c2cc(C(=O)NNS(=O)(=O)CC3CCCCC3)c(F)c(Cl)c2C#N)c1` [Compound I-443] had a half-inhibitory concentration (IC50) above 100 µM.

The compound `Cn1cnc(-c2cc(Cl)c(F)c(C(=O)NNS(=O)(=O)c3cccc(O)c3F)c2)c1` [Compound I-444] came in with an IC50 below 10 µM.

`Cn1cnc(-c2cc(Cl)c(F)c(C(=O)NNS(=O)(=O)C3CCN(CC(F)(F)F)CC3)c2)c1` [Compound I-445] gave an IC50 of 10 to 50 µM.

On to `CC([C@H]1CC[C@@H](NC(=O)OC(C)(C)C)CC1)S(=O)(=O)NNC(=O)c1cc(-c2cn(C)cn2)cc(Cl)c1F` (stereo partly drawn) [Compound I-446], for which the IC50 was below 10 µM.

Turning to `CC([C@H]1CC[C@H](NC(=O)OC(C)(C)C)CC1)S(=O)(=O)NNC(=O)c1cc(-c2cn(C)cn2)cc(Cl)c1F` (stereo partly drawn) [Compound I-447], the IC50 is below 10 µM.

Compound `CC([C@H]1CC[C@@H](N)CC1)S(=O)(=O)NNC(=O)c1cc(-c2cn(C)cn2)cc(Cl)c1F` (stereo partly drawn) [Compound I-448] had an IC50 above 100 µM.

`CC([C@H]1CC[C@H](N)CC1)S(=O)(=O)NNC(=O)c1cc(-c2cn(C)cn2)cc(Cl)c1F` (stereo partly drawn) [Compound I-449] yielded an IC50 above 100 µM.

`Cn1cnc(-c2cc(Cl)c(F)c(C(=O)NNS(=O)(=O)c3cc(OCc4ccccc4)ccc3F)c2)c1` [Compound I-450] returned an IC50 below 10 µM.

For the compound `COc1cc(F)c(S(=O)(=O)NNC(=O)c2cc(-c3cn(C)cn3)cc(Cl)c2F)cc1OCc1ccccc1` [Compound I-451], the IC50 was 10 to 50 µM.

`Cn1cnc(-c2cc(Cl)c(F)c(C(=O)NNS(=O)(=O)C3CCN(CC(F)(F)F)C3)c2)c1` (stereo not drawn) [Compound I-452] had an IC50 of 10 to 50 µM.

Compound `Cn1cnc(-c2cc(Cl)c(F)c(C(=O)NNS(=O)(=O)c3cc(O)ccc3F)c2)c1` [Compound I-453] registered an IC50 below 10 µM.

`CCNC(=O)N[C@H]1CC[C@@H](C(C)S(=O)(=O)NNC(=O)c2cc(-c3cn(C)cn3)cc(Cl)c2F)CC1` (stereo partly drawn) [Compound I-454] returned an IC50 below 10 µM.

For the compound `CCNC(=O)N[C@H]1CC[C@H](C(C)S(=O)(=O)NNC(=O)c2cc(-c3cn(C)cn3)cc(Cl)c2F)CC1` (stereo partly drawn) [Compound I-455], the IC50 was 10 to 50 µM.

`Cn1cnc(-c2cc(Cl)c(F)c(C(=O)NNS(=O)(=O)C3CCCN(CC(F)(F)F)C3)c2)c1` (stereo not drawn) [Compound I-456] displayed a half-maximal inhibitory concentration (IC50) of 10 to 50 µM.

With `COc1ccc(S(=O)(=O)NNC(=O)c2cc(-c3cn(C)cn3)cc(Cl)c2F)cc1OCc1ccccc1` [Compound I-457], the IC50 lay within 10 to 50 µM.

Compound `COc1cc(F)c(S(=O)(=O)NNC(=O)c2cc(-c3cn(C)cn3)cc(Cl)c2F)cc1O` [Compound I-458] gave an IC50 below 10 µM.

The compound `COc1ccc(S(=O)(=O)NNC(=O)c2cc(-c3cn(C)cn3)cc(Cl)c2F)cc1O` [Compound I-459] came in with an IC50 below 10 µM.

For the compound `Cn1cnc(-c2cc(Cl)c(F)c(C(=O)NNS(=O)(=O)CC3CC3)c2)c1` [Compound I-460], the IC50 lay within 10 to 50 µM.

The compound `COCCOC1CCCC(CS(=O)(=O)NNC(=O)c2cc(-c3cn(C)cn3)cc(Cl)c2F)C1` (stereo not drawn) [Compound I-461] registered an IC50 below 10 µM.

`COc1ccc(S(=O)(=O)NNC(=O)c2cc(-c3cn(C)cn3)cc(Cl)c2F)c(F)c1OCc1ccccc1` [Compound I-462] had an IC50 of 10 to 50 µM.

Turning to `COCCOC1CCC(CS(=O)(=O)NNC(=O)c2cc(-c3cn(C)cn3)cc(Cl)c2F)CC1` (stereo not drawn) [Compound I-463], the 50% inhibitory concentration (IC50) is below 10 µM.

Take `COc1cnc(Cl)c(S(=O)(=O)NNC(=O)c2cc(-c3cn(C)cn3)cc(Cl)c2F)c1` [Compound I-464]: the IC50 is below 10 µM.

Turning to `COc1ccc(S(=O)(=O)NNC(=O)c2cc(-c3cn(C)cn3)cc(Cl)c2F)c(F)c1O` [Compound I-465], the IC50 is below 10 µM.

In turn, `Cn1cnc(-c2cc(Cl)c(F)c(C(=O)NNS(=O)(=O)C[C@H]3CC[C@H](NCC(F)(F)F)CC3)c2)c1` [Compound I-466] registered an IC50 below 10 µM.

The experiment is the same for the next values; noted with them: Table 5.
As for `Cc1c(-c2ccccc2)ccc(F)c1C(=O)NNS(=O)(=O)c1ccc(Cl)cc1` [Compound A-1], the IC50 lay within 10 to 50 µM.

The compound `Cc1cccc(-c2cc(C)c(F)c(C(=O)NNS(=O)(=O)CC3CCN(C(=O)OC(C)(C)C)C3)c2)c1` (stereo not drawn) [Compound A-2] gave a concentration for half-maximal inhibition (IC50) above 100 µM.

With `Cc1cccc(-c2cc(C)c(F)c(C(=O)NNS(=O)(=O)CC3CCNC3)c2)c1` (stereo not drawn) [Compound A-3], the IC50 was above 100 µM.

With `Cc1cccc(-c2cc(Cl)c(F)c(C(=O)NNS(=O)(=O)CC3CN(C(=O)OC(C)(C)C)CCO3)c2)c1` (stereo not drawn) [Compound A-4], the IC50 is at most 10 µM.

Consider `Cc1cccc(-c2cc(Cl)c(F)c(C(=O)NNS(=O)(=O)CC3CNCCO3)c2)c1` (stereo not drawn) [Compound A-5], for which the IC50 is 10 to 50 µM.

In the case of `Cc1cccc(-c2cc(C)c(F)c(C(=O)NNS(=O)(=O)CC3CCCNC3)c2)c1` (stereo not drawn) [Compound A-6], the IC50 was above 100 µM.

Compound `Cc1cccc(-c2cc(Cl)c(F)c(C(=O)NNS(=O)(=O)C[C@H]3CCCNC3)c2)c1` [Compound A-7] came in with an IC50 above 100 µM.

Compound `Cc1cccc(-c2cc(Cl)c(F)c(C(=O)NNS(=O)(=O)CC3CCCN(C)C3)c2)c1` (stereo not drawn) [Compound A-8] yielded an IC50 above 100 µM.

Turning to `CCN1CCCC(CS(=O)(=O)NNC(=O)c2cc(-c3cccc(C)c3)cc(Cl)c2F)C1` (stereo not drawn) [Compound A-9], the IC50 is above 100 µM.

Take `Cc1cccc(-c2cc(Cl)c(F)c(C(=O)NNS(=O)(=O)C[C@@H]3CCCNC3)c2)c1` [Compound A-10]: the IC50 is above 100 µM.

Regarding `Cc1cccc(-c2cc(Cl)c(F)c(C(=O)NNS(=O)(=O)CC3CN(C)CCO3)c2)c1` (stereo not drawn) [Compound A-11], the IC50 was at most 10 µM.

On to `Cc1cccc(-c2cc(Cl)c(F)c(C(=O)NNS(=O)(=O)CCCN(C)Cc3ccccc3)c2)c1` [Compound A-18], for which the IC50 was above 100 µM.
